Read-outs that look alike come from different tables or passages of the source.
Columns and labels:
[1] = tested on: SARS-CoV-2-GHB-03021/2020; test: microbe, parasite or virus in culture; format: cell-based; details: Severe acute respiratory syndrome coronavirus 2, Vero C1008, 96 h; read-out: VeroE6 + CP (EC50)
[2] = tested on: SARS-CoV-2-GHB-03021/2020; test: SARS-CoV-2 Infection Model in Huh7 Cells; format: cell-based; details: Severe acute respiratory syndrome coronavirus 2, Huh-7, 96 h, SARS-CoV-2, day 4 p.i., MTS
[3] = target: HRV3C (Human rhinovirus 14, UniProt P03303); test: HRV3C protease assay (duplex, SAMDI-MS); format: biochemical, HRV; details: HRV3C, 30 mins preincubation, read-out: HRV IC50
Procedure, shortened: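 Readout is SAMDI mass spectrometry: biotinylated substrates, products and internal standards were immobilized on neutravidin monolayers and product formation taken as the AUC ratio to internal standard. Reactions ran 30 min at ambient temperature after 30 min compound preincubation, in duplex with 3CLpro. IC50 values came from four-parameter curve fitting.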

[4] = target: 3CLpro (Severe acute respiratory syndrome coronavirus 2, UniProt P0DTD1); test: SARS-CoV-2 3CLpro protease assay (duplex, SAMDI-MS); format: biochemical; set-up: For the duplex assay, 3CLpro and HRV3C was added; details: 3CLpro, 30 mins preincubation, class symbols; read-out: SARS-Cov-2 IC50
[5] = in vitro; details: African green monkey, VeroE6 + CP (CC50), Vero E6-eGFP cells with CP-100356, absence of virus, MTS
[6] = tested on: human beta-coronavirus OC43; test: microbe, parasite or virus in culture; format: cell-based; details: Betacoronavirus 1, OC43, HeLa, 144 h, OC43 in HeLa cells, 6 days at 33° C., read-out: EC50
[7] = Cytotoxicity plates without OC43 virus (cell-titer-glo); format: cell-based, human; details: human; HeLa cells without OC43 virus, class symbols
Procedure, shortened: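 Run as a virus-free counterpart of the OC43 cytopathic-effect assay. Attached HeLa cells received compound dilutions in EMEM with 2% FBS and were kept 6 days at 33 °C. Cell viability was then measured by CellTiter-Glo luminescence.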

[8] = target: T1, human cathepsin L (Homo sapiens, UniProt P07711); test: cathepsin L assay; format: biochemical; details: 10 pM human cathepsin L, Z-FR-AMC 2 μM, class symbols
T1 construct: purchased R&D Systems
Procedure, shortened: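 Reactions began by adding 2 μM (final) Z-FR-AMC substrate to 10 pM human cathepsin L that had been preincubated 30 min with inhibitor. Kinetic AMC fluorescence at 355/460 nm over 30 min at 2-min intervals; four-parameter fitting gave IC50 values.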

[9] = in vitro; details: human

SMILES | EC50 [1] [nM] | EC50 ([2]; numeric bounds) [nM] | IC50 ([3]; bound) [µM] | IC50 [4] [nM] | CC50 ([5]; numeric bounds) [µM] | EC50 ([6]; bound) [nM] | CC50 at 6 days [7] [µM] | IC50 [8] [µM] | CC50 [9] [µM] | EC50 ([2]; class symbols) [nM] | CC50 ([5]; class symbols) [µM] | EC50 ([6]; class symbols) [nM] | IC50 ([3]; class symbols) [µM]
COc1cccc2[nH]c(C(=O)N3C[C@@H]4CCC[C@@H]4[C@H]3C(=O)N[C@@H](Cn3cc[nH]c3=O)C(=O)C(=O)NC3CC3)cc12 [Compound 119] | > 50000 | > 50000 | > 10 | 200 to 2000 | > 50 | > 10000 | > 10 | ≥ 10 | > 50 |  |  |  | 
O=C1NCC[C@H]1C[C@H](NC(=O)[C@@H]1[C@H]2CCC[C@H]2CN1C(=O)c1cc2c(Cl)cc(-c3ccccc3)cc2[nH]1)C(=O)CO [Compound 120, (1S,3aR,6aS)-2-(4-chloro-6-phenyl-1H-indole-2-carbonyl)-N-[(2S)-4-hydroxy-3-oxo-1-[(3S)-2-oxopyrrolidin-3-yl]butan-2-yl]-hexahydro-1H-cyclopenta[c]pyrrole-1-carboxamide] | < 1000 |  | > 10 | < 20 |  |  | > 10 | ≥ 10 | 1 to 10 | < 1000 | > 10 | < 100 | 
O=C1NCC[C@H]1C[C@H](NC(=O)[C@@H]1[C@H]2CCC[C@H]2CN1C(=O)c1cc2c(Cl)c(F)c(Cl)cc2[nH]1)C(=O)CO [Compound 121, (1S,3aR,6aS)-2-(4,6-dichloro-5-fluoro-1H-indole-2-carbonyl)-N—((S)-4-hydroxy-3-oxo-1-((S)-2-oxopyrrolidin-3-yl)butan-2-yl)octahydrocyclopenta[c]pyrrole-1-carboxamide] | 1000 to 10000 |  | > 10 | 20 to 200 | > 50 |  | > 10 | ≥ 10 | > 50 | < 1000 |  | < 100 | 
O=C1NCC[C@H]1C[C@H](NC(=O)[C@@H]1[C@H]2CCC[C@H]2CN1C(=O)c1cc2c(Cl)c(F)cc(Cl)c2[nH]1)C(=O)CO [Compound 122, (1S,3aR,6aS)-2-(4,7-dichloro-5-fluoro-1H-indole-2-carbonyl)-N-[(2S)-4-hydroxy-3-oxo-1-[(3S)-2-oxopyrrolidin-3-yl]butan-2-yl]-hexahydro-1H-cyclopenta[c]pyrrole-1-carboxamide] | < 1000 |  | > 10 | 20 to 200 | > 50 |  | > 10 | ≥ 10 | > 50 | < 1000 |  | < 100 | 
O=C1NCC[C@H]1C[C@H](NC(=O)[C@@H]1[C@H]2CCC[C@H]2CN1C(=O)c1cc2c(Oc3ccccc3)cccc2[nH]1)C(=O)CO [Compound 123, (1S,3aR,6aS)—N-[(2S)-4-hydroxy-3-oxo-1-[(3S)-2-oxopyrrolidin-3-yl]butan-2-yl]-2-(4-phenoxy-1H-indole-2-carbonyl)-hexahydro-1H-cyclopenta[c]pyrrole-1-carboxamide] | 1000 to 10000 |  | > 10 | 20 to 200 | > 50 |  | > 10 | ≥ 10 | > 50 | 1000 to 10000 |  | 100 to 1000 | 
COc1ccc(Br)c2[nH]c(C(=O)N3C[C@@H]4CCC[C@@H]4[C@H]3C(=O)N[C@@H](C[C@@H]3CCNC3=O)C(=O)CO)cc12 [Compound 124, (1S,3aR,6aS)-2-(7-bromo-4-methoxy-1H-indole-2-carbonyl)-N-[(2S)-4-hydroxy-3-oxo-1-[(3S)-2-oxopyrrolidin-3-yl]butan-2-yl]-hexahydro-1H-cyclopenta[c]pyrrole-1-carboxamide] | < 1000 |  |  | < 20 | > 50 |  | > 10 | ≥ 10 | > 50 | < 1000 |  | 100 to 1000 | 2 to 20
CC(C)C(=O)OCC(=O)[C@H](C[C@@H]1CCNC1=O)NC(=O)[C@@H]1[C@H]2CCC[C@H]2CN1C(=O)c1cc2c(Cl)cc(Cl)cc2[nH]1 [Compound 125, (3S)-3-{[(1S,3aR,6aS)-2-(4,6-dichloro-1H-indole-2-carbonyl)-hexahydro-1H-cyclopenta[c]pyrrol-1-yl]formamido}-2-oxo-4-[(3S)-2-oxopyrrolidin-3-yl]butyl 2-methylpropanoate] | < 1000 |  | > 10 | 200 to 2000 | > 50 |  | > 10 | ≥ 10 | > 10 | < 1000 |  | < 100 | 
O=C1NCC[C@H]1C[C@H](NC(=O)[C@@H]1[C@H]2CCC[C@H]2CN1C(=O)c1cc2c(OC(F)F)cc(Cl)cc2[nH]1)C(=O)CO [Compound 126, (1S,3aR,6aS)-2-[6-chloro-4-(difluoromethoxy)-1H-indole-2-carbonyl]-N-[(2S)-4-hydroxy-3-oxo-1-[(3S)-2-oxopyrrolidin-3-yl]butan-2-yl]-hexahydro-1H-cyclopenta[c]pyrrole-1-carboxamide] | 1000 to 10000 |  |  | < 20 | > 50 |  | > 10 | ≥ 10 | > 50 | 1000 to 10000 |  | < 100 | 2 to 20
CC1(C)[C@@H]2[C@@H](C(=O)N[C@@H](C[C@@H]3CCNC3=O)C(=O)CO)N(C(=O)c3cc4c(Cl)cc(Cl)cc4[nH]3)C[C@@H]21 [Compound 127, (1R,2S,5S)-3-(4,6-dichloro-1H-indole-2-carbonyl)-N-[(2S)-4-hydroxy-3-oxo-1-[(3S)-2-oxopyrrolidin-3-yl]butan-2-yl]-6,6-dimethyl-3-azabicyclo[3.1.0]hexane-2-carboxamide] | < 1000 |  |  | 20 to 200 | > 50 |  | > 10 | ≥ 10 | > 10 | < 1000 |  | 100 to 1000 | 2 to 20
O=C1NCC[C@H]1C[C@H](NC(=O)[C@@H]1[C@H]2CCC[C@H]2CN1C(=O)c1cc2c(Cl)ccc(OCc3ccccc3)c2[nH]1)C(=O)CO [Compound 128, (1S,3aR,6aS)-2-[7-(benzyloxy)-4-chloro-1H-indole-2-carbonyl]-N-[(2S)-4-hydroxy-3-oxo-1-[(3S)-2-oxopyrrolidin-3-yl]butan-2-yl]-hexahydro-1H-cyclopenta[c]pyrrole-1-carboxamide] | 1000 to 10000 |  | > 10 | 20 to 200 |  |  | > 10 | ≥ 10 | > 10 | < 1000 | > 10 | < 100 | 
O=C1NCC[C@H]1C[C@H](NC(=O)[C@@H]1[C@H]2CCC[C@H]2CN1C(=O)c1cc2c(Cl)cc(Oc3ccccc3)cc2[nH]1)C(=O)CO [Compound 129, (1S,3aR,6aS)-2-(4-chloro-6-phenoxy-1H-indole-2-carbonyl)-N-[(2S)-4-hydroxy-3-oxo-1-[(3S)-2-oxopyrrolidin-3-yl]butan-2-yl]-hexahydro-1H-cyclopenta[c]pyrrole-1-carboxamide] | < 1000 |  | > 10 | < 20 |  |  | > 10 | ≥ 10 | > 10 | < 1000 | > 10 | < 100 | 
